Experiment [1] concerns the target DNA polymerase III (Bacillus subtilis). The experiment is described as follows: Inhibition constant against Bacillus subtilis azp-12 DNA polymerase III (mutant enzyme).
Experiment [2] has as its target DNA polymerase III PolC-type (Bacillus subtilis (strain 168), UniProt P13267). In words: Inhibition constant against Bacillus subtilis DNA polymerase III (wild type). Particulars: read-out: Log 1/Ki (converted).

Data on 18 compounds can be found in ChEMBL document CHEMBL1122565, “Quantitative structure-activity relationships of 6-anilinouracils as inhibitors of Bacillus subtilis DNA polymerase III” (J Med Chem, 1984).

The structures appear in SMILES notation.

DNA polymerase III PolC-type, sequence (P13267 whole entry): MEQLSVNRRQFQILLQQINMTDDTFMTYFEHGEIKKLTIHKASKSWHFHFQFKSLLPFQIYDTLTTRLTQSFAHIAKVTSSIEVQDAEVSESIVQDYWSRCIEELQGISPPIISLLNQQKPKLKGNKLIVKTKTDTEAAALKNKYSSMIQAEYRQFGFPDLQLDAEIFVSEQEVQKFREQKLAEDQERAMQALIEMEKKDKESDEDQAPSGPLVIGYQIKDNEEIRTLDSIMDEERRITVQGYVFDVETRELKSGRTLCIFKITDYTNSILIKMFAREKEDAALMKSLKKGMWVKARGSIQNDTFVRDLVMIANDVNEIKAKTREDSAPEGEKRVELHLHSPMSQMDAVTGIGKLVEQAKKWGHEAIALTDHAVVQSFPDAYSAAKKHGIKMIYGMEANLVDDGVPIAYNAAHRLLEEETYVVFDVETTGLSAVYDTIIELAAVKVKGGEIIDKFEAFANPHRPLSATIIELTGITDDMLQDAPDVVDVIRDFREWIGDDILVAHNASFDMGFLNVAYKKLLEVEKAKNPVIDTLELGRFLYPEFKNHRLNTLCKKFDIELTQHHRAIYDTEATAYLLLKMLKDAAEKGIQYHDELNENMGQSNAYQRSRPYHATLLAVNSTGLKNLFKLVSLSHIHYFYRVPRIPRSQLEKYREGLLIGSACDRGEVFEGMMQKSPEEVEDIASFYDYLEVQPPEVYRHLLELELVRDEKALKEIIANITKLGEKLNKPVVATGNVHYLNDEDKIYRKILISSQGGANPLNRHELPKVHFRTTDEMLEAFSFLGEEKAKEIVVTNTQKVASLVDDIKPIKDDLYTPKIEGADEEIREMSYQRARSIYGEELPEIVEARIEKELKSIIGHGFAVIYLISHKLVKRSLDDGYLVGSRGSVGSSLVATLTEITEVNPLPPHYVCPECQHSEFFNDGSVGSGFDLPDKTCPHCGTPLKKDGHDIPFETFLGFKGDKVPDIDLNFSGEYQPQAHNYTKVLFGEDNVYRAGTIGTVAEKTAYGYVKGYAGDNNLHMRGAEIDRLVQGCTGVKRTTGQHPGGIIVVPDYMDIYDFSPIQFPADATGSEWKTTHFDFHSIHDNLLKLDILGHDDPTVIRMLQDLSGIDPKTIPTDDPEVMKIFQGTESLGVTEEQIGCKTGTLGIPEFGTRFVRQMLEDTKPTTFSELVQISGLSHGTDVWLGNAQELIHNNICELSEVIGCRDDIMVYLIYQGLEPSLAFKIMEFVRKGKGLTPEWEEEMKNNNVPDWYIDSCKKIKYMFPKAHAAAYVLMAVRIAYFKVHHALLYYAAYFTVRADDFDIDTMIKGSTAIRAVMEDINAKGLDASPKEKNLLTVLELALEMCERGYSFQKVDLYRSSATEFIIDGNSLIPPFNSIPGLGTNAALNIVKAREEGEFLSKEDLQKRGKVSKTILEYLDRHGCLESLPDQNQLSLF

Regarding `Oc1cc(Nc2cccc(Br)c2)nc(O)n1`, the “Log 1/Ki” value in experiment [1] is 4.66. On the same count and under the same terms, next, `CC(=O)Nc1ccc(Nc2cc(O)nc(O)n2)cc1C`: 2.81; `OCc1cccc(Nc2cc(O)nc(O)n2)c1`: 2.29; `CC(=O)Nc1cc(Nc2cc(O)nc(O)n2)ccc1C`: 2.726. On the same count and under the same terms, the value for `Nc1ccc(Nc2cc(O)nc(O)n2)cc1` was 2.409. As for `CCCc1ccc(Nc2cc(O)nc(O)n2)cc1`, in experiment [1], the “Log 1/Ki” value amounted to 4.278. Regarding `Cc1cccc(Nc2cc(O)nc(O)n2)c1`, in experiment [1], the “Log 1/Ki” value came to 3.75.

Take `CCc1cc(Nc2cc(=O)[nH]c(=O)[nH]2)ccc1C`: in experiment [2], the Ki is 0.19 µM.

Take `CCCCc1ccc(Nc2cc(O)nc(O)n2)cc1C`: the Ki in experiment [2] is 692 µM. For the same compound, the “Log 1/Ki” value in experiment [1] stood at 3.879. Turning to `CCCCc1cccc(Nc2cc(O)nc(O)n2)c1`, the Ki in experiment [2] is 695 µM. Same read-out and setting: next, `CCc1ccc(Nc2cc(=O)[nH]c(=O)[nH]2)cc1C`: 19 µM.

For `Cc1cc(Nc2cc(O)nc(O)n2)ccc1N`, in experiment [1], the “Log 1/Ki” value worked out at 3.801. In the case of `CCCc1ccc(Nc2cc(O)nc(O)n2)cc1C`, the Ki in experiment [2] was 97.9 µM. Moreover, in experiment [1], the “Log 1/Ki” value came out at 4.86.

In the case of `Cc1ccc(Nc2cc(O)nc(O)n2)cc1C`, the “Log 1/Ki” value in experiment [1] is listed as 5.456. For `CCCc1cccc(Nc2cc(O)nc(O)n2)c1`, the Ki in experiment [2] was 17 µM. Take `COc1ccc(Nc2cc(O)nc(O)n2)cc1`: in experiment [1], the “Log 1/Ki” value worked out at 3.921.

For `Oc1cc(Nc2cccc(Cl)c2)nc(O)n1`, the “Log 1/Ki” value in experiment [1] worked out at 4.38. Take `Cc1ccc(Nc2cc(O)nc(O)n2)cc1I`: the “Log 1/Ki” value in experiment [1] amounted to 6.553.
